Drawing on US7335722B2, “Peptides used as angiotensin converting enzyme inhibitor and preparation process thereof” (Food Industry Research and Development Institute, priority 1999, dated 2008), this text covers IC50 for two substances.

The subject of this assay is ACE. As to the kind of experiment: ACE inhibitory activity (IC50) of the isolated peptides, method not specified. The class given is biochemical. The protocol: The five more apparent peaks in FIG. 4 are designated as A3-B4-C6-D1 to D5. The sequences of them are determined by sequence-determining machine. Five short-chain peptides, Val-Leu-Pro (VLP), Ilu-Leu-Pro (ILP), Val-Leu-Tyr (VLY), Val-Leu-Pro-Pro (VLPP) and Ilu-Leu-Pro-Pro (ILPP) are obtained. The ACE inhibitory activity of them (IC50) is determined.

Ilu-Leu-Pro-Pro (ILPP): the IC50 was determined as 172 µM. In the case of VLPP [Val-Leu-Pro-Pro] it was 97 µM.
